Entries after “also recorded” stand apart in the source; their conditions may differ.
Legend:
[1] = test system: hippocampal/cortical cultures; assay: Neurogranin expression study in vitro; format: cell-based; details: Aβ42 oligomers 500 nM 1 hr, then CT1812 4.8 nM 24 hr; 21 DIV cultures
Procedure: Neurons were fixed in 3.75% formaldehyde and stained with full-length neurogranin (Abcam catalogue # ab23570, used in combination with novel Ng7 to detect full length neurogranin in Alzheimer's disease patient brain IP; Kvartsberg et al. 2015 Blennow lab), MAP2 (Millipore), and 4G8 (Biolegend) antibodies. Imaging was performed on Cellomics VX automated microscope with a 20×, 0.75 NA objective and analyzed using a compartmental analysis algorithm to measure staining in the nucleus versus cytoplasm.

[2] = test system: Aβ oligomers bound to neuronal receptors; assay: Aβ oligomer binding to / displacement from neuronal receptors; format: cell-based
[3] = Phase 1 MAD CSF concentration of CT1812; format: in vivo, human; details: for receptor occupancy associated with CSF CT1812 levels: extrapolated from transgenic mouse brain; for concentration at 1.5 h: human, cerebrospinal fluid, oral, 1.5 hr post dose, Day 7 to Day 9
Excerpt: CT1812 was quantitated in CSF using a validated LC-MS/MS method.

[4] = Phase 1 MAD safety (adverse events, laboratory, ECG); format: in vivo, human
Procedure: In Part B, healthy young subjects in each cohort received the same dose once daily for 14 days after overnight fasting. Cohort dosing started at 280 mg, followed by 560 mg and 840 mg in subsequent cohorts. In each cohort, eight subjects received drug and two received placebo. A fourth cohort of healthy elderly subjects (≥65 years old) received a 560 mg dose vs. placebo daily for 14 days (seven active, two placebo).
Subjects were dosed in the morning with 240 mL of water after an 8-hour fast, and remained in a semi-reclined position for 1 hour and fasting for 2 hours post-administration, except for the fed cohort in Part A. Subjects in each MAD cohort were confined to the clinical facility from check-in on Day 0 until the pharmacokinetic sample was collected on Day 16, 48 hours after administration of the last dose on Day 14. Subjects returned to the clinical facility for follow-up visits on Days 24 and 35.
Safety variables, including incidence of adverse events (AEs), vital signs, clinical laboratory findings, 12-lead electrocardiographs (ECGs), physical examination, and affective and cognitive measures (Part B only), were summarized for all subjects who received study drug.

[5] = MAD, 280 mg, Age ≤64 yrs (n = 8)
[6] = MAD, 560 mg, Age ≤64 yrs (n = 8)
[7] = MAD, 560 mg, Age ≥65 years (n = 7)
[8] = MAD, 840 mg, Age ≤64 yrs (n = 8)

## CC(C)(C)Oc1cc(CCC(C)(C)N2Cc3ccc(S(C)(=O)=O)cc3C2)ccc1O [CT1812]
[1]
  full length neurogranin protein expression in neurons: restores neurogranin expression
[2]
  displacement of Aβ oligomers from neuronal/synaptic receptors: displaces amyloid beta (Aβ) oligomers from neuronal receptors; also recorded: displace oligomers from synaptic receptor sites; also recorded: prevents and displaces binding of Aβ oligomers to neurons
[3]; 560 mg dose
  receptor occupancy associated with CSF CT1812 levels: 95%
[3]; 560 mg-840 mg dose range, 1.5 hr post-dose, equivalent mouse brain concentration
  projected receptor occupancy at average CSF concentrations: 97-98%
[3]; 840 mg dose
  receptor occupancy associated with CSF CT1812 levels: 98%
[3]; MAD 560 and 840 mg, at peak plasma concentrations
  CSF CT1812 concentration vs dose: dose-dependent manner; also recorded: dose-dependent increases
[3]; from CT1812 levels in CSF
  blood-brain barrier penetration in humans: penetrates the blood-brain barrier
[3]; 560 mg daily
  concentration at 1.5 h: 8 ng/mL
[3]; 840 mg daily
  concentration at 1.5 h: 23.3 ng/mL
[4]; 840 mg dose, two instances
  vomiting incidence: 25%
[4]; 840 mg, respiratory picornavirus infection deemed unrelated to study treatment
  serious AE (SAE): One serious AE
[4]; 280 to 840 mg QD 14 days (young), 560 mg (elderly)
  tolerability, multiple dose: safe and well tolerated
[4]; MAD
  ECG parameters or changes: No ECG parameters or changes were assessed as clinically significant
[4]; [5]
  Number of Subjects with at least one Treatment-Emergent AE: All TEAEs: 7
  Number of Subjects with at least one Treatment-Emergent AE: Dizziness: 1
  Number of Subjects with at least one Treatment-Emergent AE: Dyspepsia: 1
  Number of Subjects with at least one Treatment-Emergent AE: Headache: 2
  Number of Subjects with at least one Treatment-Emergent AE: Nausea: 1
  Number of Subjects with at least one Treatment-Emergent AE: Upper respiratory tract infection: 5
  Subjects (%) with at least one Treatment-Emergent AE: All TEAEs: (88%)
  Subjects (%) with at least one Treatment-Emergent AE: Dizziness: (13%)
  Subjects (%) with at least one Treatment-Emergent AE: Dyspepsia: (13%)
  Subjects (%) with at least one Treatment-Emergent AE: Headache: (25%)
  Subjects (%) with at least one Treatment-Emergent AE: Nausea: (13%)
  Subjects (%) with at least one Treatment-Emergent AE: Upper respiratory tract infection: (63%)
[4]; [6]
  Number of Subjects with at least one Treatment-Emergent AE: All TEAEs: 7
  Number of Subjects with at least one Treatment-Emergent AE: Catheter site phlebitis: 1
  Number of Subjects with at least one Treatment-Emergent AE: Dyspepsia: 1
  Number of Subjects with at least one Treatment-Emergent AE: Headache: 1
  Number of Subjects with at least one Treatment-Emergent AE: Procedural pain: 4
  Number of Subjects with at least one Treatment-Emergent AE: Upper respiratory tract infection: 1
  Subjects (%) with at least one Treatment-Emergent AE: All TEAEs: (88%)
  Subjects (%) with at least one Treatment-Emergent AE: Catheter site phlebitis: (13%)
  Subjects (%) with at least one Treatment-Emergent AE: Dyspepsia: (13%)
  Subjects (%) with at least one Treatment-Emergent AE: Headache: (13%)
  Subjects (%) with at least one Treatment-Emergent AE: Procedural pain: (50%)
  Subjects (%) with at least one Treatment-Emergent AE: Upper respiratory tract infection: (13%)
[4]; [7]
  Number of Subjects with at least one Treatment-Emergent AE: All TEAEs: 5
  Number of Subjects with at least one Treatment-Emergent AE: Back pain: 1
  Number of Subjects with at least one Treatment-Emergent AE: Dizziness: 1
  Number of Subjects with at least one Treatment-Emergent AE: Headache: 3
  Subjects (%) with at least one Treatment-Emergent AE: All TEAEs: (71%)
  Subjects (%) with at least one Treatment-Emergent AE: Back pain: (14%)
  Subjects (%) with at least one Treatment-Emergent AE: Dizziness: (14%)
  Subjects (%) with at least one Treatment-Emergent AE: Headache: (43%)
[4]; [8]
  Number of Subjects with at least one Treatment-Emergent AE: All TEAEs: 6
  Number of Subjects with at least one Treatment-Emergent AE: Back pain: 1
  Number of Subjects with at least one Treatment-Emergent AE: Catheter site phlebitis: 1
  Number of Subjects with at least one Treatment-Emergent AE: Dizziness: 1
  Number of Subjects with at least one Treatment-Emergent AE: Dyspepsia: 1
  Number of Subjects with at least one Treatment-Emergent AE: Headache: 4
  Number of Subjects with at least one Treatment-Emergent AE: Nausea: 1
  Number of Subjects with at least one Treatment-Emergent AE: Procedural pain: 2
  Number of Subjects with at least one Treatment-Emergent AE: Upper respiratory tract infection: 2
  Number of Subjects with at least one Treatment-Emergent AE: Vomiting: 2
  Subjects (%) with at least one Treatment-Emergent AE: All TEAEs: (75%)
  Subjects (%) with at least one Treatment-Emergent AE: Back pain: (13%)
  Subjects (%) with at least one Treatment-Emergent AE: Catheter site phlebitis: (13%)
  Subjects (%) with at least one Treatment-Emergent AE: Dizziness: (13%)
  Subjects (%) with at least one Treatment-Emergent AE: Dyspepsia: (13%)
  Subjects (%) with at least one Treatment-Emergent AE: Headache: (50%)
  Subjects (%) with at least one Treatment-Emergent AE: Nausea: (13%)
  Subjects (%) with at least one Treatment-Emergent AE: Procedural pain: (25%)
  Subjects (%) with at least one Treatment-Emergent AE: Upper respiratory tract infection: (25%)
  Subjects (%) with at least one Treatment-Emergent AE: Vomiting: (25%)
[4]; MAD, CT1812 (of 31 subjects)
  Treatment-emergent AEs, % of subjects: 81%
  Treatment-emergent AEs, number of subjects: 25
[4]; MAD, Total Active (n = 31)
  Number of Subjects with at least one Treatment-Emergent AE: All TEAEs: 25
  Number of Subjects with at least one Treatment-Emergent AE: Back pain: 2
  Number of Subjects with at least one Treatment-Emergent AE: Catheter site phlebitis: 2
  Number of Subjects with at least one Treatment-Emergent AE: Dizziness: 3
  Number of Subjects with at least one Treatment-Emergent AE: Dyspepsia: 3
  Number of Subjects with at least one Treatment-Emergent AE: Headache: 10
  Number of Subjects with at least one Treatment-Emergent AE: Nausea: 2
  Number of Subjects with at least one Treatment-Emergent AE: Procedural pain: 6
  Number of Subjects with at least one Treatment-Emergent AE: Upper respiratory tract infection: 8
  Number of Subjects with at least one Treatment-Emergent AE: Vomiting: 2
  Subjects (%) with at least one Treatment-Emergent AE: All TEAEs: (%81)
  Subjects (%) with at least one Treatment-Emergent AE: Back pain: (6%)
  Subjects (%) with at least one Treatment-Emergent AE: Catheter site phlebitis: (6%)
  Subjects (%) with at least one Treatment-Emergent AE: Dizziness: (10%)
  Subjects (%) with at least one Treatment-Emergent AE: Dyspepsia: (10%)
  Subjects (%) with at least one Treatment-Emergent AE: Headache: (32%)
  Subjects (%) with at least one Treatment-Emergent AE: Nausea: (6%)
  Subjects (%) with at least one Treatment-Emergent AE: Procedural pain: (19%)
  Subjects (%) with at least one Treatment-Emergent AE: Upper respiratory tract infection: (26%)
  Subjects (%) with at least one Treatment-Emergent AE: Vomiting: (6%)
[4]; MAD, improved after discontinuing CT1812
  rash: One subject developed a rash
[4]; four subjects in MAD study (including one on placebo)
  increase in liver function tests: below 3 × the upper limit of normal

Reference: patent publication US20200338045A1, “ISOINDOLINE COMPOSITIONS AND METHODS FOR TREATING NEURODEGENERATIVE DISEASE” (priority 2017, published 2020)
